Earlier results, collected in patent publication US20240174620A1, “SOLID FORMS OF SAFLUFENACIL-SODIUM AND SAFLUFENACIL-POTASSIUM, PROCESS OF PREPARATION AND USE THEREOF” (ADAMA AGAN LTD., priority 2021, published 2024).
Like-named read-outs stand apart in the source and are kept apart here.

Key:
[1] = not given; remark: listed apart in the source

Q: With `CC(C)N(C)S(=O)(=O)NC(=O)c1cc(-n2c(=O)cc(C(F)(F)F)n(C)c2=O)c(F)cc1Cl` [Saflufenacil] as the molecule, how does the “solubility in 1-octanol” value (1-octanol, 20° C.) read?
A: Its value is under 0.01 g/100 mL.

Q: And the solubility in acetone (acetone, 20° C.)?
A: The solubility in acetone was 27.5 g/100 mL.

Q: And the solubility in acetonitrile (acetonitrile, 20° C.)?
A: Its solubility in acetonitrile is 19.4 g/100 mL.

Q: And the “solubility in ethyl acetate” value (ethyl acetate, 20° C.)?
A: The value was 6.55 g/100 mL.

Q: What about the “solubility in isopropyl alcohol” value (isopropyl alcohol, 20° C.) of the same molecule?
A: The value was 0.25 g/100 mL.

Q: What about the solubility in methanol (methanol, 20° C.) of the same molecule?
A: The solubility in methanol was 2.98 g/100 mL.

Q: What about the solubility in n-heptane (n-heptane, 20° C.) of the same molecule?
A: The solubility in n-heptane was under 0.005 g/100 mL.

Q: What about the solubility in tetrahydrofurane (tetrahydrofurane, 20° C.) of the same molecule?
A: The solubility in tetrahydrofurane was 36.2 g/100 mL.

Q: What about the solubility in toluene (toluene, 20° C.) of the same molecule?
A: Its solubility in toluene is 0.23 g/100 mL.

Q: What about the solubility in water (pH 5, 20° C.) of the same molecule?
A: The solubility in water was 0.0025 g/100 mL.

Q: And the solubility in water (pH 7, 20° C.)?
A: Its solubility in water is 0.21 g/100 mL.

Q: What about the pKa [1] of the same molecule?
A: Its pKa is 4.41.
